Experimental data from patent US20230085307A1, “PYRIDAZINONE COMPOUND AND HERBICIDE” (NISSAN CHEMICAL CORPORATION, priority 2019, published 2023).

Legend:
windgrass [1] = assay: Test Example 5: herbicidal effect by foliage application, plastic box (Table 20, symbol L); assay type: in vivo, windgrass (Apera spica-venti); details: foliage application, 320 g/ha, three weeks after application
Summary of the method: (§1)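 Sow seeds spot-wise in sterilized diluvial soil; cover with ~1.5 cm soil. Grow 14 days in greenhouse, 25° C. to 30° C. Spray foliage with emulsion diluted to predetermined amount. Rate effect after 3 weeks.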

redroot pigweed [2] = assay: Test Example 4: herbicidal effect by soil treatment (Table 19, symbol N); assay type: in vivo, redroot pigweed (Amaranthus retroflexus); details: amount of applied herbicide 320 g/ha
Summary of the method: (§2)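 Soil-surface application: an emulsion agent diluted with water to the predetermined dose is sprayed uniformly over seeds lying under roughly 1.5 cm of sterilized diluvial soil. Boxes stay in a greenhouse at 25° C. to 30° C. Three weeks later, each species is graded on previously defined criteria.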

Italian ryegrass [3] = assay: Test Example 5: herbicidal effect by foliage application, plastic box (Table 20, symbol K); assay type: in vivo, Italian ryegrass (Lolium multiflorum); details: foliage application, 320 g/ha, three weeks after application
Summary of the method: as §1

blackgrass [4] = assay: Test Example 5: herbicidal effect by foliage application, plastic box (Table 20, symbol J); assay type: in vivo, blackgrass (Alopecurus myosuroides); details: foliage application, 320 g/ha, three weeks after application
Summary of the method: as §1

false cleavers [5] = assay: Test Example 5: herbicidal effect by foliage application, plastic box (Table 20, symbol Q); assay type: in vivo, false cleavers (Galium spurium); details: foliage application, 320 g/ha, three weeks after application
Summary of the method: as §1

false cleavers [6] = assay: Test Example 4: herbicidal effect by soil treatment (Table 19, symbol Q); assay type: in vivo, false cleavers (Galium spurium); details: amount of applied herbicide 320 g/ha
Summary of the method: as §2

green foxtail [7] = assay: Test Example 5: herbicidal effect by foliage application, plastic box (Table 20, symbol G); assay type: in vivo, green foxtail (Setaria viridis); details: foliage application, 320 g/ha, three weeks after application
Summary of the method: as §1

barnyard grass [8] = assay: Test Example 4: herbicidal effect by soil treatment (Table 19, symbol H); assay type: in vivo, barnyard grass (Echinochloa crus-galli); details: amount of applied herbicide 320 g/ha
Summary of the method: as §2

velvetleaf [9] = assay: Test Example 4: herbicidal effect by soil treatment (Table 19, symbol M); assay type: in vivo, velvetleaf (Abutilon theophrasti); details: amount of applied herbicide 320 g/ha
Summary of the method: as §2

rice flat sedge = assay: Test Example 3: herbicidal effect by foliage application, Wagner pot (Table 18, symbol E); assay type: in vivo, rice flat sedge (Cyperus iria); details: 320 g/ha
Summary of the method: (§3)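 Plants were sown in alluvial soil held under 0.1–0.5 cm standing water and grown 14 days in a greenhouse at 25–30 °C. An emulsifiable formulation, water-diluted to the set dose, was then sprayed onto the foliage, and effects were scored three weeks later using previously defined criteria.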

persian speedwell [10] = assay: Test Example 5: herbicidal effect by foliage application, plastic box (Table 20, symbol R); assay type: in vivo, Persian speedwell (Veronica persica); details: foliage application, 320 g/ha, three weeks after application
Summary of the method: as §1

persian speedwell [11] = assay: Test Example 4: herbicidal effect by soil treatment (Table 19, symbol R); assay type: in vivo, Persian speedwell (Veronica persica); details: amount of applied herbicide 320 g/ha
Summary of the method: as §2

redroot pigweed [12] = assay: Test Example 5: herbicidal effect by foliage application, plastic box (Table 20, symbol N); assay type: in vivo, redroot pigweed (Amaranthus retroflexus); details: foliage application, 320 g/ha, three weeks after application
Summary of the method: as §1

southern crabgrass [13] = assay: Test Example 5: herbicidal effect by foliage application, plastic box (Table 20, symbol F); assay type: in vivo, southern crabgrass (Digitaria ciliaris); details: foliage application, 320 g/ha, three weeks after application
Summary of the method: as §1

lambsquarters [14] = assay: Test Example 4: herbicidal effect by soil treatment (Table 19, symbol O); assay type: in vivo, lambsquarters (Chenopodium album); details: amount of applied herbicide 320 g/ha
Summary of the method: as §2

chickweed [15] = assay: Test Example 4: herbicidal effect by soil treatment (Table 19, symbol P); assay type: in vivo, common chickweed (Stellaria media); details: amount of applied herbicide 320 g/ha
Summary of the method: as §2

barnyard grass [16] = assay: Test Example 3: herbicidal effect by foliage application, Wagner pot (Table 18, symbol H); assay type: in vivo, barnyard grass (Echinochloa crus-galli); details: 320 g/ha
Summary of the method: as §3

velvetleaf [17] = assay: Test Example 5: herbicidal effect by foliage application, plastic box (Table 20, symbol M); assay type: in vivo, velvetleaf (Abutilon theophrasti); details: foliage application, 320 g/ha, three weeks after application
Summary of the method: as §1

wild oat [18] = assay: Test Example 5: herbicidal effect by foliage application, plastic box (Table 20, symbol I); assay type: in vivo, wild oat (Avena fatua); details: foliage application, 320 g/ha, three weeks after application
Summary of the method: as §1

wild oat [19] = assay: Test Example 4: herbicidal effect by soil treatment (Table 19, symbol I); assay type: in vivo, wild oat (Avena fatua); details: amount of applied herbicide 320 g/ha
Summary of the method: as §2

windgrass [20] = assay: Test Example 4: herbicidal effect by soil treatment (Table 19, symbol L); assay type: in vivo, windgrass (Apera spica-venti); details: amount of applied herbicide 320 g/ha
Summary of the method: as §2

Chinese sprangletop = assay: Test Example 3: herbicidal effect by foliage application, Wagner pot (Table 18, symbol D); assay type: in vivo, chinese sprangletop (Leptochloa chinensis); details: 320 g/ha
Summary of the method: as §3

green foxtail [21] = assay: Test Example 4: herbicidal effect by soil treatment (Table 19, symbol G); assay type: in vivo, green foxtail (Setaria viridis); details: amount of applied herbicide 320 g/ha
Summary of the method: as §2

lambsquarters [22] = assay: Test Example 5: herbicidal effect by foliage application, plastic box (Table 20, symbol O); assay type: in vivo, lambsquarters (Chenopodium album); details: foliage application, 320 g/ha, three weeks after application
Summary of the method: as §1

Italian ryegrass [23] = assay: Test Example 4: herbicidal effect by soil treatment (Table 19, symbol K); assay type: in vivo, Italian ryegrass (Lolium multiflorum); details: amount of applied herbicide 320 g/ha
Summary of the method: as §2

barnyard grass [24] = assay: Test Example 5: herbicidal effect by foliage application, plastic box (Table 20, symbol H); assay type: in vivo, barnyard grass (Echinochloa crus-galli); details: foliage application, 320 g/ha, three weeks after application
Summary of the method: as §1

blackgrass [25] = assay: Test Example 4: herbicidal effect by soil treatment (Table 19, symbol J); assay type: in vivo, blackgrass (Alopecurus myosuroides); details: amount of applied herbicide 320 g/ha
Summary of the method: as §2

chickweed [26] = assay: Test Example 5: herbicidal effect by foliage application, plastic box (Table 20, symbol P); assay type: in vivo, common chickweed (Stellaria media); details: foliage application, 320 g/ha, three weeks after application
Summary of the method: as §1

southern crabgrass [27] = assay: Test Example 4: herbicidal effect by soil treatment (Table 19, symbol F); assay type: in vivo, southern crabgrass (Digitaria ciliaris); details: amount of applied herbicide 320 g/ha
Summary of the method: as §2

Structure (SMILES)	herbicidal effect grade, L: windgrass (windgrass [1])	herbicidal effect rating, N: redroot pigweed (redroot pigweed [2])	herbicidal effect grade, K: Italian ryegrass (Italian ryegrass [3])	herbicidal effect grade, J: blackgrass (blackgrass [4])	herbicidal effect grade, Q: false cleavers (false cleavers [5])	herbicidal effect rating, Q: false cleavers (false cleavers [6])	herbicidal effect grade, G: green foxtail (green foxtail [7])	herbicidal effect rating, H: barnyard grass (barnyard grass [8])	herbicidal effect rating, M: velvetleaf (velvetleaf [9])	herbicidal effect grade, R: persian speedwell (persian speedwell [10])	herbicidal effect rating, R: persian speedwell (persian speedwell [11])	herbicidal effect grade, N: redroot pigweed (redroot pigweed [12])	herbicidal effect grade, F: southern crabgrass (southern crabgrass [13])	herbicidal effect rating, O: lambsquarters (lambsquarters [14])	herbicidal effect rating, P: chickweed (chickweed [15])	herbicidal effect grade, M: velvetleaf (velvetleaf [17])	herbicidal effect grade, I: wild oat (wild oat [18])	herbicidal effect rating, I: wild oat (wild oat [19])	herbicidal effect rating, L: windgrass (windgrass [20])	herbicidal effect rating, G: green foxtail (green foxtail [21])	further results
CCc1ccccc1-c1sc2ccccc2c1-c1c(O)c(C)nn(C)c1=O [1-003]	5 (Herbicidal rate of 90% or more (almost completely withered))	2 (Herbicidal rate of 20% or more and less than 40%)	3 (Herbicidal rate of 40% or more and less than 70%)	3 (Herbicidal rate of 40% or more and less than 70%)	5 (Herbicidal rate of 90% or more (almost completely withered))	3 (Herbicidal rate of 40% or more and less than 70%)	5 (Herbicidal rate of 90% or more (almost completely withered))	0 (Herbicidal rate of 5% or less (almost no effect))	0 (Herbicidal rate of 5% or less (almost no effect))	5 (Herbicidal rate of 90% or more (almost completely withered))	2 (Herbicidal rate of 20% or more and less than 40%)	3 (Herbicidal rate of 40% or more and less than 70%)	4 (Herbicidal rate of 70% or more and less than 90%)	3 (Herbicidal rate of 40% or more and less than 70%)	4 (Herbicidal rate of 70% or more and less than 90%)	4 (Herbicidal rate of 70% or more and less than 90%)	3 (Herbicidal rate of 40% or more and less than 70%)	0 (Herbicidal rate of 5% or less (almost no effect))	0 (Herbicidal rate of 5% or less (almost no effect))	4 (Herbicidal rate of 70% or more and less than 90%)	herbicidal effect on E (rice flat sedge), rating 0-5 (rice flat sedge): 3 (Herbicidal rate of 40% or more and less than 70%); herbicidal effect on H (barnyard grass), rating 0-5 (barnyard grass [16]): 1 (Herbicidal rate of 5% or more and less than 20%); herbicidal effect on D (Chinese sprangletop), rating 0-5 (Chinese sprangletop): 3 (Herbicidal rate of 40% or more and less than 70%); herbicidal effect grade, O: lambsquarters (lambsquarters [22]): 0 (Herbicidal rate of 5% or less (almost no effect)); herbicidal effect rating, K: Italian ryegrass (Italian ryegrass [23]): 0 (Herbicidal rate of 5% or less (almost no effect)); herbicidal effect grade, H: barnyard grass (barnyard grass [24]): 3 (Herbicidal rate of 40% or more and less than 70%); herbicidal effect rating, J: blackgrass (blackgrass [25]): 0 (Herbicidal rate of 5% or less (almost no effect)); herbicidal effect grade, P: chickweed (chickweed [26]): 5 (Herbicidal rate of 90% or more (almost completely withered)); herbicidal effect rating, F: southern crabgrass (southern crabgrass [27]): 3 (Herbicidal rate of 40% or more and less than 70%)
CCCC(=O)Oc1c(C)nn(C)c(=O)c1-c1c(-c2ccsc2)sc2ccccc12 [1-084]	0 (Herbicidal rate of 5% or less (almost no effect))	0 (Herbicidal rate of 5% or less (almost no effect))	1 (Herbicidal rate of 5% or more and less than 20%)	0 (Herbicidal rate of 5% or less (almost no effect))	0 (Herbicidal rate of 5% or less (almost no effect))	0 (Herbicidal rate of 5% or less (almost no effect))	0 (Herbicidal rate of 5% or less (almost no effect))	1 (Herbicidal rate of 5% or more and less than 20%)	0 (Herbicidal rate of 5% or less (almost no effect))	0 (Herbicidal rate of 5% or less (almost no effect))	0 (Herbicidal rate of 5% or less (almost no effect))	0 (Herbicidal rate of 5% or less (almost no effect))	0 (Herbicidal rate of 5% or less (almost no effect))	0 (Herbicidal rate of 5% or less (almost no effect))	1 (Herbicidal rate of 5% or more and less than 20%)	0 (Herbicidal rate of 5% or less (almost no effect))	0 (Herbicidal rate of 5% or less (almost no effect))	0 (Herbicidal rate of 5% or less (almost no effect))	0 (Herbicidal rate of 5% or less (almost no effect))	2 (Herbicidal rate of 20% or more and less than 40%)	herbicidal effect grade, O: lambsquarters (lambsquarters [22]): 0 (Herbicidal rate of 5% or less (almost no effect)); herbicidal effect rating, K: Italian ryegrass (Italian ryegrass [23]): 0 (Herbicidal rate of 5% or less (almost no effect)); herbicidal effect grade, H: barnyard grass (barnyard grass [24]): 0 (Herbicidal rate of 5% or less (almost no effect)); herbicidal effect rating, J: blackgrass (blackgrass [25]): 0 (Herbicidal rate of 5% or less (almost no effect)); herbicidal effect grade, P: chickweed (chickweed [26]): 5 (Herbicidal rate of 90% or more (almost completely withered)); herbicidal effect rating, F: southern crabgrass (southern crabgrass [27]): 1 (Herbicidal rate of 5% or more and less than 20%)
